Series [1] deals with FVB/NHan mice inoculated with kainate (KA). Put plainly: Integral memory test (temporal and spatial memory) in mice after kainate. It counts as in vivo. Here is the method:
All the animals included for the experimental process were 12-week old males of the FVB/NHan strain. The experiments were conducted strictly following the Guidance on the Operation of Animals (Scientific Procedures, Act. 1986). The animals had their respective quarantine period and were treated with maximum precaution to minimize possible contaminations for inoculations and handling.
Twenty-eight animals were used in this assay and the treatments were all conducted by intraperitoneal (i.p.) route with a volume of 100 μl, according to the following regimens: • i) PBS+PBS+PBS regimen: 4 animals were initially treated with PBS with a daily dose for 2 days, on the second day the animals were inoculated with a new dose of PBS and for the following 3 days with a daily dose of PBS. • ii) PBS+KA+PBS regimen: 6 animals were initially treated with PBS with a daily dose for 2 days, on the second day the animals were inoculated with a dose of kainate at 25 mg/Kg and for the following 3 days with a daily dose of PBS. • iii) PBS+KA+NST0037 regimen: 7 animals were initially treated with PBS with a daily dose for 2 days, on the second day the animals were inoculated with a dose of kainate at 25 mg/Kg and for the following 3 days with a daily dose of NST0037 at 50 mg/kg. • iv) NST0037+KA+NST0037 regimen: 6 animals were initially treated with a daily dose for 2 days with NST0037 at 50 mg/kg, on the second day the animals were inoculated with a dose of kainate at 25 mg/Kg and for the following 3 days with a daily dose of NST0037 at 50 mg/kg. • v) NST0037+PBS+NST0037 regimen: 5 animals were initially treated with a daily dose for 2 days with NST0037 at 50 mg/kg, on the second day the animals were inoculated with a dose of PBS and for the following 3 days with a daily dose of NST0037 at 50 mg/kg.
Three days after inoculation of KA, an object recognition test called integral memory test was performed on the animals.

Series [2] deals with Candida albicans CECT 1002. Put plainly: Fungicidal activity bioassay (growth inhibition halos). It counts as cell-based. As to conditions: β-hydroxy acid form. The procedure:
The fungicidal activity of NST0037 was analyzed by means of bioassay against Candida albicans. […] The assayed concentrations were the following: 2, 1.5, 1, 0.5, 0.25, 0.125, 0.06, 0.025 and 0.01 mM. Plates of MA medium (containing per liter: 20 g malt extract, 20 g glucose, 1 g mycopeptone and 10 g agar) previously inoculated with a culture of Candida albicans CECT (Spanish Type-Culture Collection) 1002 were prepared. With aid of a die (6 mm in diameter) various wells were prepared in which 40 μL of the previous solutions were deposited. The study was performed in triplicate and triplicates for each compound and concentration were included in each plate. The plates were kept at 4° C. for 1 hour and were subsequently incubated at 28° C. overnight. The presence of antifungal activity was determined by means of the formation of C. albicans growth inhibition halos.

The test system of series [3] is ApoB100 mice. Put plainly: Hypocholesterolemic effect, oral 28 days, endogenous hyperlipidemia model. It counts as in vivo. Here is the method: All the animals included for the experimental process were 12-week old female mice. The experiments were conducted strictly following the Guidance on the Operation of Animals (Scientific Procedures, Act. 1986). The animals had their respective quarantine period and were treated with maximum precaution to minimize possible contaminations for inoculations and handling.
The control group received this same vehicle. Before starting the treatments and at 7, 21 and 28 days of starting them, retro-orbital blood extractions after fasting for 16 hours were carried out. The plasma was obtained from said blood, in which the total cholesterol (TC), free cholesterol (FC), cholesterol (EC), HDL-c, LDL-c, VLDL-c and apoB100 levels were evaluated by enzymatic and spectrophotometric techniques. In order to check if the effect at the lipid level involved an alteration of the oxidative stress, the redox state in the plasmas obtained was furthermore evaluated by means of the TEAC (Trolox Antioxidant Capacity Assay) technique. This technique determines the antioxidant capacity in vitro, giving an idea of the redox state of the sample analyzed by means of the absorbance capacity by electron transfer. The different components of the reaction, myoglobin, ABTS (2,2-azino-bis-(3-ethylbenzthiazoline-sulfonic acid), […] H2O2 were added to the plasmas diluted 1/10 in PBS (10 μL) in a 96-well plate. After 3 minutes of incubation, the absorbance was measured at 405 nm (with a reference of 600 nm).

In series [4] the test system is seladin-1/DHCR24 gene. Put plainly: seladin-1/DHCR24 gene expression in brain of wild-type mice. The settings on record: 50 mg/kg oral, 4 hours, male C57BL6 mice. The series is classed as in vivo. Here is the method: A control group received only the vehicle, which consisted of 0.25% carboxy methylcellulose in physiological saline. 4 hours after the oral administrations, the animals were sacrificed under gas anesthesia with isoflurane and the brains, previously perfused with PBS, were removed and immediately afterwards frozen in liquid nitrogen. Subsequently, the total RNA of the brain was extracted by means of the High Pure RNA Isolation kit (Roche) and the amount and quality of the RNA were analyzed by means of spectrophotometry (Infinite 200 with NanoQuant, Tecan) and viewing of the 18S and 28S bands by means of electrophoresis. The RT-PCR was performed by means of two steps, first, the mRNA was changed to cDNA using the RNA to cDNA kit (Applied Biosystem) and the gene expression was subsequently analyzed by means of TagMan probes using the validated probes Mn00519071_m1 for seladin-1/DHCR24 and Hs99999901_s1 for 18S (used to normalize the results) in the 7500 Fast Real-Time PCR System equipment (Applied Biosystem). The relative amount of the gene expression was determined by using the ΔΔCt method with the SDS v2.1.1 software (Applied Biosystem); the expression of 18S was used to normalize the measurement.

The conditions of series [5]: PAMPA, 18 h, 100 μM, pH 7.4. A general note: In PAMPA a lipid-coated filter parts donor from acceptor wells.

The record followed here is patent publication US20140309295A1, “ANTIEPILEPTIC, HYPOCHOLESTEROLEMIC AND NEUROPROTECTIVE COMPOUND” (NEURON BIOPHARMA, S.A., priority 2009, published 2014).

`CCC(CC)C(=O)O[C@H]1C[C@@H](C)C=C2C=C[C@H](C)[C@H](CC[C@@H]3C[C@@H](O)CC(=O)O3)[C@H]21` [NST0037, (1S,2S,6R,8S,8aR)-1,2,6,7,8,8a-hexahydro-3,7-dimethyl-8-[2-[(2R,4R)-tetrahydro-4-hydroxy-6-oxo-2H-pyran-2-yl]ethyl]-1-naphthalenyl-2-ethyl-butyrate]: the spatial memory entry in series [1] (NST0037+KA+NST0037 regimen, 50 mg/kg i.p.) is listed as “spatial memory is intact”. Besides, the temporal memory entry in series [1] (NST0037+KA+NST0037 regimen, 50 mg/kg i.p., 3 days after KA) is “prevented the reduction in the temporal memory capacity”. Besides, in series [1] (NST0037+PBS+NST0037 regimen), the spatial memory entry is on record as “spatial memory is intact”. Further, the temporal memory result in series [1] (NST0037+PBS+NST0037 regimen, vs PBS+PBS+PBS) is on record as “improvement of the temporal memory”. For the same compound, the spatial memory result in series [1] (PBS+KA+NST0037 regimen, 50 mg/kg i.p.) is recorded as “improvement of this type of memory”. For the same compound, in series [1] (PBS+KA+NST0037 regimen, 50 mg/kg i.p., 3 days after KA), the temporal memory entry is “improvement of the state of the temporal memory”. Besides, the “inhibition halos at lower concentrations” value in series [2] (0.06 and 0.025 mM) was “the only one capable of causing inhibition halos”. Moreover, the “antifungal activity (inhibition halos)” value in series [2] (2 to 0.01 mM) is “higher antifungal activity than the statins included in the assay”. The “FC and EC levels” value in series [3] (50 mg/kg oral, 7, 21 and 28 days) is “reduction of the FC and EC levels”. Further, in series [3] (50 mg/kg oral, 28 days), the HDL entry was “reduction of VLDL and HDL”; the LDL entry is “smaller increase of LDL”; the VLDL entry is listed as “reduction of VLDL”; the “apolipoprotein B (apoB) levels” value is on record as “visibly reduced”. Further, the “redox state of the plasmas (TEAC)” value in series [3] (50 mg/kg oral, 28 days) was “decrease the redox state”. In addition, the “plasma total cholesterol levels” value in series [3] (50 mg/kg oral, 28 days, female apoB100 mice) is “significantly reducing the plasma total cholesterol levels”. For the same compound, the “seladin-1/DHCR24 gene expression in brain” value in series [4] is on record as “increased the gene expression”. Besides, the “% BBB Passage” value in series [5] is given as 22.5 ± 5.5%.
